Residues, ends and D or L forms follow the SMILES beside them.
What was measured:
[1] = Cerebrospinal fluid pooled from ≥ 3 human donors; settings: 37°C, up to 72.5 h
[2] = Plasma stability of TA/SA γ-MSH peptides in reconstituted human plasma; type: in vitro ADME; settings: 37°C
Experimental: For studies on the plasma stability of TA/SA γ-MSH, lyophilized citrated plasma from a pool of human donors was reconstituted in H2O as indicated by the manufacturer (# P9523, Sigma-Aldrich Chemie GmbH). Stability of human γ-MSH peptides was evaluated in fresh frozen human plasma (Interregional Blood Transfusion Swiss Red Cross Ltd, Epalinges, Swizerland). To this end, pooled samples of complete EDTA blood were centrifuged for 10 min at 1300 g, plasma was separated from buffy coat and erythrocytes and cleared by an additional 10 min centrifugation step at 1300 g. Cerebrospinal fluid pooled from ≥ 3 human donors was provided in liquid phase (# 991-19-P, Lee Biosolutions Inc., Maryland Heights, MO, USA). Aliquots of both body fluids were stored at -80°C until use. Samples of reconstituted plasma or CSF were thawed on ice, the pH of fresh frozen plasma was adjusted to 7.4 by addition of triethanolamine to a final concentration of 50 mM, and 45 μl aliquots were distributed to 1.5 ml Protein LoBind Tubes (Eppendorf AG, Hamburg, Germany). The γ-MSH synthetic peptides were pre-diluted in H2O to 20 μM, and 5 μl each were added on ice to 45 μl pre-laid samples of plasma or CSF. The γ-MSH starting concentration in degradation assays was thus 2 μM. Immediately after mixing, a first 5 μl aliquot for time point zero was removed, tubes were then transferred to a 37°C heat block, and further 5 μl aliquots were collected from plasma and CSF samples after various incubation times up to 68 h and 72.5 h, respectively. For control purposes, γ-MSH peptides were also diluted in H2O to a concentration of 2 μM and aliquots were removed after the corresponding incubation times at 37°C. All collected 5 μl aliquots were immediately diluted in 45 μl H2O and frozen on dry ice in 96 well V-bottom non-binding microplates (Greiner Bio-One Vacuette Schweiz GmbH, St. Gallen, Schweiz) to stop further degradation. After completion of degradation time courses, collection plates were stored at -80°C.
(§1) The residual TA/SA or human γ-MSH signaling activities were simultaneously analyzed on Glo-sensor and TA or human MC3R transfected HEK293T cells, respectively. […] Maximal luminescence values for the residual γ-MSH ligand activities were determined for all time points in the degradation time course, were baseline subtracted and normalized to the maximal luminescence value at time point zero for the same ligand in the same plate. All degradation time courses were performed in triplicate and read on three separate 96 well plates. […] Degradation curves were established by non-linear regression curve fit (least square fit) and half-lives determined from one phase decay curves. […]

[3] = Cerebrospinal fluid stability of γ-MSH peptides; type: in vitro ADME; settings: pooled human CSF, 2 μM peptide, 37°C, up to 72 h, residual cAMP signaling on TA MC3R
Experimental: (§2) For studies on the plasma stability of TA/SA γ-MSH, lyophilized citrated plasma from a pool of human donors was reconstituted in H2O as indicated by the manufacturer (# P9523, Sigma-Aldrich Chemie GmbH). Stability of human γ-MSH peptides was evaluated in fresh frozen human plasma (Interregional Blood Transfusion Swiss Red Cross Ltd, Epalinges, Swizerland). To this end, pooled samples of complete EDTA blood were centrifuged for 10 min at 1300 g, plasma was separated from buffy coat and erythrocytes and cleared by an additional 10 min centrifugation step at 1300 g. Cerebrospinal fluid pooled from ≥ 3 human donors was provided in liquid phase (# 991-19-P, Lee Biosolutions Inc., Maryland Heights, MO, USA). […]
as §1

TA PC2 (with mouse 7B2) = assay: supernatants of HEK293T cells transfected with TA PCSK2 and mouse 7B2 plasmids, 5 mM CaCl2, pH 5.5 (pH 4.1 to 8.1); settings: human (HEK293T); Tyto alba alba enzyme
[4] = supernatants of mock-transfected HEK293T cells (IRES GFP-plasmid only); settings: human (HEK293T)
TA PC1/3 = assay: supernatants of HEK293T cells transfected with TA PCSK1 plasmid, 5 mM CaCl2, pH 5.5 (pH 4.1 to 8.1); settings: human (HEK293T); Tyto alba alba enzyme
[5] = Plasma stability of human γ-MSH peptides in fresh frozen human plasma; type: in vitro ADME; settings: 37°C, non-glycosylated synthetic peptides
Experimental: as §2, §1

YVMSHFRWNKFGRRNSSSSSGGH
not cleaved [1]: completely stable in CSF (up to 72 h)

YVMSHFRWNKFGRRNSSSSSSSSSSSSSGGH
not cleaved [1]: completely stable in CSF (up to 72 h)

CSCC[C@H](NC(=O)[C@@H](NC(=O)[C@@H](N)Cc1ccc(O)cc1)C(C)C)C(=O)N[C@@H](CO)C(=O)N[C@@H](Cc1c[nH]cn1)C(=O)N[C@@H](Cc1ccccc1)C(=O)N[C@@H](CCCNC(=N)N)C(=O)N[C@@H](Cc1c[nH]c2ccccc12)C(=O)N[C@@H](CC(N)=O)C(=O)N[C@@H](CCCCN)C(=O)N[C@@H](Cc1ccccc1)C(=O)NCC(N)=O [SA / TA γ2-MSH] (H-YVMSHFRWNKFG-NH2)
plasma half-life ([2]; reconstituted pooled human plasma, 2 μM peptide, residual cAMP signaling on TA MC3R, one-phase decay, triplicate): 0.45 h | half-life in human CSF [3]: > 7.5 h | stability in human cerebrospinal fluid ([3]; triplicate): stable for several hours

Pyr-ERTKR-AMC (L-pyroglutamyl-(arginine-threonine-lysine-arginine)-7-amino-3-methylcoumarin)
cleaved bond (TA PC2 (with mouse 7B2)): R-AMC | not cleaved [4]: no activity across the entire pH range | cleaved bond (TA PC1/3): R-AMC

YVMSHFRWNKFGRRNSSSSSSSSSSSSSSSSSSGGH
not cleaved [1]: completely stable in CSF (up to 72 h)

CSCC[C@H](NC(=O)[C@@H](NC(=O)[C@@H](N)Cc1ccc(O)cc1)C(C)C)C(=O)NCC(=O)N[C@@H](Cc1c[nH]cn1)C(=O)N[C@@H](Cc1ccccc1)C(=O)N[C@@H](CCCNC(=N)N)C(=O)N[C@@H](Cc1c[nH]c2ccccc12)C(=O)N[C@@H](CC(=O)O)C(=O)N[C@@H](CCCNC(=N)N)C(=O)N[C@@H](Cc1ccccc1)C(=O)NCC(=O)N[C@@H](CCCNC(=N)N)C(=O)N[C@@H](CCCNC(=N)N)C(=O)N[C@@H](CC(N)=O)C(=O)N[C@@H](CO)C(=O)N[C@@H](CO)C(=O)N[C@@H](CO)C(=O)N[C@@H](CO)C(=O)NCC(=O)N[C@@H](CO)C(=O)N[C@@H](CO)C(=O)NCC(=O)N[C@@H](C)C(=O)NCC(=O)N[C@@H](CCC(N)=O)C(=O)O [human γ3-MSH (wt)] (H-YVMGHFRWDRFGRRNSSSSGSSGAGQ-OH)
plasma stability, fold increased over human γ2-MSH [5]: > 100 fold

CSCC[C@H](NC(=O)[C@@H](NC(=O)[C@@H](N)Cc1ccc(O)cc1)C(C)C)C(=O)N[C@@H](CO)C(=O)N[C@@H](Cc1c[nH]cn1)C(=O)N[C@@H](Cc1ccccc1)C(=O)N[C@@H](CCCNC(=N)N)C(=O)N[C@@H](Cc1c[nH]c2ccccc12)C(=O)N[C@@H](CC(N)=O)C(=O)N[C@@H](CCCCN)C(=O)N[C@@H](Cc1ccccc1)C(=O)NCC(=O)N[C@@H](CCCNC(=N)N)C(=O)N[C@@H](CCCNC(=N)N)C(=O)N[C@@H](CC(N)=O)C(=O)N[C@@H](CO)C(=O)N[C@@H](CO)C(=O)N[C@@H](CO)C(=O)N[C@@H](CO)C(=O)N[C@@H](CO)C(=O)N[C@@H](CO)C(=O)N[C@@H](CO)C(=O)N[C@@H](CO)C(=O)N[C@@H](CO)C(=O)N[C@@H](CO)C(=O)N[C@@H](CO)C(=O)N[C@@H](CO)C(=O)N[C@@H](CO)C(=O)NCC(=O)NCC(=O)N[C@@H](Cc1c[nH]cn1)C(=O)O [TA γ3-MSH 13 S] (H-YVMSHFRWNKFGRRNSSSSSSSSSSSSSGGH-OH)
plasma half-life, fold longer than that of γ2-MSH ([2]; reconstituted human plasma): 70 fold | plasma half-life, fold longer than that of γ3-MSH containing 5 serines ([2]; reconstituted human plasma): > 6 fold | plasma half-life (t1/2) ([2]; reconstituted lyophilized citrated pooled human plasma, 2 μM peptide, up to 68 h, residual cAMP signaling on TA MC3R/Glo-sensor HEK293T (luminescence), one-phase decay, triplicate): > 30 h

Reference: article PMC7199972 (PLoS ONE, 2020)
